Like-named read-outs stand apart in the source and are kept apart here.
Key:
[1] = molecular target: K-ras G12D (Homo sapiens, UniProt P01116, G12D); assay: G-LISA Ras activation assay, 293H cells transfected with G12D mutant; format: cell-based; conditions: 1 hour treatment
Experimental: (§1) 293H cells were seeded in 6-wells at 0.6×10^6 cells per well and transfected next day with 5 μg of Ras wild-type, or G12C, G12D or G12V mutant DNA plasmid vector using transfection reagent Lipofectamine 3000. Next day cells were treated with 3.125-50 μM of Ras compounds for 1 hour. Wild-type transfected cells were subsequently treated with 100 ng/ml EGF for 2 minutes. Cells were washed once in ice-cold PBS, lysed in complete lysis buffer on ice, and processed by G-LISA according to Cytoskeleton protocol.
(§2) In-cell selectivity of the compounds presented herein against a specific K-ras mutant form can also be tested as shown in the following exemplary experiment. 293H cells were seeded in 6-wells and transfected next day with 5 μg of Ras wild-type, or G12C, G12D or G12V mutant DNA plasmid vector. Next day cells were treated with 3.125-50 μM of Ras compounds for 1 hour. Wild-type transfected cells were subsequently treated with 100 ng/ml EGF for 2 minutes. Cells were washed once in ice-cold PBS, lysed in complete lysis buffer on ice, and processed by G-LISA according to Cytoskeleton protocol. FIG. 1 depicts exemplary results.
as §1, with “In still further experiments, the inventors tested selected compounds in a G-LISA assay to compare IC50 values for wild-type and various mutant K-Ras (G12D, G12V) using the following general protocol: 293H” for “293H”

[2] = molecular target: K-ras G12D (GTP) (Homo sapiens, UniProt P01116, G12D); assay: SPR assay (surface plasmon resonance); format: binding; conditions: 25° C., 8% DMSO
Experimental: (§3) Selected compounds were also tested for selective binding to wild type and mutant forms of K-ras in the active and non-active state using surface plasmon resonance, and exemplary results are shown in Table 4.
(§4) The running buffer in all surface plasmon resonance experiments was 10 mM HEPES pH 7.4, 150 mM NaCl, 0.1% (v/v) Tween-20, 1 mM MgCl2, 8% DMSO. Experiments were carried out on the SensiQ Pioneer optical biosensor. The flow rate was set at 50 μL/min and the temperature was 25° C. kRAS protein was immobilized to the Nickel-NTA charged surface of the SensiQ HisCap chip (sensiqtech.com) giving a yield of 4000 RU. Small molecules were prepared in 100% DMSO and further diluted to 8% DMSO in running buffer. The small molecules were injected using the Taylor diffusion gradient injection mode (OneStep®, see e.g., Evaluation of Taylor dispersion injections: Determining kinetic/affinity interaction constants and diffusion coefficients in label-free biosensing, John G. Quinn, Analytical Biochemistry (2011)). Buffer blanks were injected for double referencing purposes. Data processing and model fitting were performed using Qdat.

[3] = molecular target: K-ras G12V (GTP) (Homo sapiens, UniProt P01116, G12V); assay: SPR assay (surface plasmon resonance); format: binding; conditions: 25° C., 8% DMSO
Experimental: as §3, §4

[4] = test system: Panc1 (G12D) cells; assay: 72 hr cell viability (CellTiterBlue); format: cell-based; conditions: GI50, 72 hr
Experimental: (§5) Viability assays were performed on exemplary compounds and Table 2 below lists exemplary results for selected compounds tested on wild type (Ishikawa) and various K-ras mutants (Panc1-G12D; Panc10.05-G12D; HCT116-G13D).
(§6) Cells are counted and seeded at 1000 cells/36 ul medium/well into 384-well microplates. Cells are returned to 37° C. CO2 incubator for 18 hr. Drug is made as 200× in DMSO and diluted into medium to 10×. To each well is added 4 ul 10× drug, and plates are returned to the incubator. Final assay DMSO concentration is 0.5%. After 72 hr, 8 ul CellTiterBlue (Promega) is added to each well. After 3 hr, fluorescence (Ex550/Em590) is determined on the Victor Plate Reader (Perkin Elmer). Assay range is determined by DMSO control (100% viability) and 100 uM tamoxifen (0% viability). GI50 values are calculated using Graphpad Prism.

[5] = test system: Panc10.05 (G12D) cells; assay: 72 hr cell viability (CellTiterBlue); format: cell-based; conditions: GI50, 72 hr
Experimental: as §5, §6

[6] = test system: Erk phosphorylation in Panc1 (G12D) cells; assay: In-Cell Western Erk phosphorylation; format: cell-based; conditions: EC50, one hour treatment; read-out: In-Cell Western Erk phosporylation Panc1 (G12D)
Experimental: (§7) In-cell phosphorylation assays for Erk and Akt were performed on various of the compounds and exemplary results are shown in Table 3 below using […] and Panc10.05 cell lines for G12D K-ras mutants.
(§8) Cells are seeded in complete medium into black sided, clear-bottom 384-well microplates at 3000 cells/[…]/well. Plates are returned to 37° C. CO2 incubator for 18 hr. Drug is made as 200× in DMSO and diluted into medium to 10×. To each well is added 4 ul 10× test article or controls, and plates are returned to the incubator. Final assay DMSO concentration is 0.5%. After one hour, cells are fixed in formaldehyde, rinsed & permeabilized with triton X-100, and blocked with BSA/Goat serum blocking solution. Primary phospho-Akt and phospho-ERK antibodies are added and plates are incubated overnight at 4° C. Plates are rinsed with Tween-20 wash buffer and secondary antibody (Goat anti-rabbit, Thermofisher) is added. After 2 hours, plates are rinsed in Tween-20 wash buffer, and then PBS. Plates are imaged on the Celigo (Nexcelom) and cellular fluorescence is quantitated. Full inhibition of phospho-Akt is achieved with 1 uM BEZ235 (Sellekchem), while full inhibition of phospho-ERK is achieved with 1 uM MEK Inhibitor II Calbiochem). EC50 values are calculated using Graphpad Prism.

[7] = test system: Erk phosphorylation in Panc10.05 (G12D) cells; assay: In-Cell Western Erk phosphorylation; format: cell-based; conditions: EC50, one hour treatment; read-out: In-Cell Western Erk phosporylation Panc10.05 (G12D)
Experimental: as §7, §8

[8] = test system: Akt phosphorylation in Panc1 (G12D) cells; assay: In-Cell Western Akt phosphorylation; format: cell-based; conditions: EC50, one hour treatment; read-out: In-Cell Western Akt phosporylation Panc1 (G12D)
Experimental: as §7, §8

[9] = test system: Akt phosphorylation in Panc10.05 (G12D) cells; assay: In-Cell Western Akt phosphorylation; format: cell-based; conditions: EC50, one hour treatment; read-out: In-Cell Western Akt phosporylation Panc10.05 (G12D)
Experimental: as §7, §8

[10] = molecular target: K-Ras wild-type (Homo sapiens, UniProt P01116); assay: G-LISA Ras activation assay, 293H cells transfected with Ras wild-type, EGF-stimulated; format: cell-based; conditions: 1 hour treatment, 100 ng/ml EGF
Experimental: as §1, §2
as §1, with “In still further experiments, the inventors tested selected compounds in a G-LISA assay to compare IC50 values for wild-type and various mutant K-Ras (G12D, G12V) using the following general protocol: 293H” for “293H”

[11] = molecular target: K-ras G12V (Homo sapiens, UniProt P01116, G12V); assay: G-LISA Ras activation assay, 293H cells transfected with G12V mutant; format: cell-based; conditions: 1 hour treatment
Experimental: as §1, §2
as §1, with “In still further experiments, the inventors tested selected compounds in a G-LISA assay to compare IC50 values for wild-type and various mutant K-Ras (G12D, G12V) using the following general protocol: 293H” for “293H”

[12] = test system: Ishikawa (K-Ras wild-type) cells; assay: 72 hr cell viability (CellTiterBlue); format: cell-based; conditions: GI50, 72 hr
Experimental: as §5, §6

[13] = test system: HCT116 (G13D) cells; assay: 72 hr cell viability (CellTiterBlue); format: cell-based; conditions: GI50, 72 hr
Experimental: as §5, §6

[14] = Table 1, G-LISA, 293H transfected, read-out: IC50 (μM) G12D
[15] = Table 5, IC50, 293H transfected, read-out: G-LISA (G12D)
[16] = Table 1, G-LISA, 293H transfected, read-out: IC50 (μM) Wild-type
[17] = Table 5, IC50, 293H transfected, read-out: G-LISA (wild type)
[18] = Table 1, G-LISA, 293H transfected, read-out: IC50 (μM) G12V
[19] = Table 5, IC50, 293H transfected, read-out: G-LISA (G12V)

| Structure (SMILES) | IC50 [1, 14] [µM] | IC50 [1, 15] [µM] | Kd [2] [µM] | SPR Assay G12D (GTP) Rmax [2] | Kd [3] [µM] | SPR Assay G12V (GTP) Rmax [3] | IC50 [4] [µM] | IC50 [5] [µM] | EC50 [6] [µM] | EC50 [7] [µM] | EC50 [8] [µM] | EC50 [9] [µM] | IC50 [10, 16] [µM] | IC50 [10, 17] [µM] | IC50 [11, 18] [µM] | IC50 [11, 19] [µM] | IC50 [12] [µM] | IC50 [13] [µM] |
| --- | --- | --- | --- | --- | --- | --- | --- | --- | --- | --- | --- | --- | --- | --- | --- | --- | --- | --- |
| Cc1nc(C)c(C(=O)Nc2nc(-c3ccc4c(c3)CCC(=O)O4)cs2)s1 [Compound 4664] | > 25 | > 25 | 4.8 | Rmax = 8.73 | 36.8 | Rmax = 143 ± 1 |  |  |  |  |  |  |  |  |  |  |  |  |
| Cc1nc(C)c(CNc2nc(-c3ccc4c(c3)CCC(=O)N4)cs2)s1 [Compound 4856] | > 25 |  |  |  |  |  | ≥ 25 | ≥ 25 | 7 | 19 | > 25 | > 25 |  |  |  |  |  |  |
| Cc1nc(C2CC2)sc1C(=O)Nc1nc(-c2ccc3c(c2)CCC(=O)N3)cs1 [Compound 4877] | 6 | 6 |  |  |  |  | 5 |  | 3 | 3 | 7 | 17 | 16 | 16 | 9 | 9 | 1.2 |  |
| Cc1nc(C)c(C(=O)Nc2nc(-c3ccc4c(c3)CCC(=O)N4Cc3ccccc3)cs2)s1 [Compound 4888] | 6 | 6 |  |  |  |  | 9 | 4 | 4 | 2 | 5 | 3 | 11.3 | 11.3 | 14.5 | 14.5 | 5 | 7 |
| Cc1nc(C)c(C(=O)N(Cc2ccccc2)c2nc(-c3ccc4c(c3)CCC(=O)N4Cc3ccccc3)cs2)s1 [Compound 4889] |  |  |  |  |  |  | ≥ 25 | ≥ 25 | > 25 | > 25 | > 25 | > 25 |  |  |  |  | 14 | 21 |
| CCc1nc(C)c(C(=O)Nc2nc(-c3ccc4c(c3)CCC(=O)N4)cs2)s1 [Compound 4891] | 5 |  |  |  |  |  | 11 | 4 | 2 | 2 | 7 | 3 | 11.5 |  | 9.3 |  | 12 | 13 |
| Cc1nc(C2CCOC2)sc1C(=O)Nc1nc(-c2ccc3c(c2)CCC(=O)N3)cs1 (stereo not drawn) [Compound 4892] | 6.5 |  |  |  |  |  | 17 | 6 | 5 | 2 | 12 | 6 |  |  |  |  | 14 | 14 |
| Cc1nc(Cc2ccccn2)sc1C(=O)Nc1nc(-c2ccc3c(c2)CCC(=O)N3)cs1 [Compound 4893] |  |  |  |  |  |  | ≥ 25 | ≥ 25 | > 25 | > 25 | > 25 | > 25 |  |  |  |  | ≥ 25 | ≥ 25 |
| Cc1nc(-n2ccnc2)sc1C(=O)Nc1nc(-c2ccc3c(c2)CCC(=O)N3)cs1 [Compound 4894] |  |  |  |  |  |  | ≥ 25 | ≥ 25 | > 25 | > 25 | > 25 | > 25 |  |  |  |  | ≥ 25 | ≥ 25 |
| Cc1nc(N2CCOCC2)sc1C(=O)Nc1nc(-c2ccc3c(c2)CCC(=O)N3)cs1 [Compound 4895] |  |  |  |  |  |  | ≥ 25 | ≥ 25 | > 25 | > 25 | > 25 | > 25 |  |  |  |  | ≥ 25 | ≥ 25 |
| COCCOc1nc(C)c(C(=O)Nc2nc(-c3ccc4c(c3)CCC(=O)N4)cs2)s1 [Compound 4896] |  |  |  |  |  |  | ≥ 25 | ≥ 25 | 8 | 8 | 14 | 12 |  |  |  |  | 19 | 22 |
